Data published in PMC5418574, “Facile access to potent antiviral quinazoline heterocycles with fluorescence properties via merging metal-free domino reactions” (Nature Communications, 2017).
Several values for one entry are separate records, joined by “and”; a condition that tells them apart may be missing. Equal entries are not always repeated. Where two headings read alike, the source gives them in different places.

Legend:
[1] = system: non-GFP-expressing HCMV (strain AD169); assay: classical plaque formation assay on HFFs; format: cell-based, human cytomegalovirus; details: Human betaherpesvirus 5, AD169, read-out: EC50, plaque formation assay
Procedure: (§1) In addition, EC50 values were confirmed using non-GFP-expressing HCMV (strain AD169) by a classical plaque formation assay on HFFs (n=4), providing data consistent with the GFP-based data shown in Table 1, that is, compound 7h, 7.3±0.7 μM; compound 8, 0.3±0.0 μM; compound 9, 0.3±0.1 μM. Moreover, antiviral activity was clearly separated from putative cytotoxic effects because of the results obtained with a standard trypan blue exclusion assay. […] Consistent with these findings are results from a MTS-based cell proliferation assay, showing moderate or no antiproliferative effects on HFFs for all analysed compounds in concentrations up to 30 μM (see Supplementary Fig. 5 and Supplementary Methods). Thus, the new quinazolines and hybrid compounds can be regarded as selective, which is one of the most important aspects in drug design.

[2] = trypan blue exclusion cytotoxicity assay; format: cell-based; details: human, primary HFFs (human foreskin fibroblasts), 0.2-100 μM for 3 days, n=6 (artesunic acid n=3)
Procedure: as §1
Cytotoxicity and Cell Proliferation Assays
Assays measuring distinct parameters of cytotoxicity and/or cell proliferation were performed as described earlier.7, 8 In brief, a trypan blue exclusion assay was performed with cultured cells seeded in 24-well plates and incubated with increasing concentrations of antiviral compounds (range of 0.2 μM to […]
before the percentage of viable cells was determined by microscopic counting (determination at least in triplicates). The cell proliferation assay (CellTiter 96 AQueous One Solution cell proliferation assay; Promega) was performed in a 96-well plate format after a 3-day treatment with compounds under standard conditions of measurement as described by the manufacturer. […]

HCMV AD169-GFP = assay: HCMV GFP-based replication assay (automated GFP fluorometry); format: cell-based, human cytomegalovirus
Procedure: The measurement of antiviral activity was based on automated fluorometry using a green fluorescent protein (GFP)-expressing, recombinant HCMV (excitation 485 nm, emission 535 nm; see Supplementary Note 2, Supplementary Data 1 and Supplementary Fig. 4 for dose–response curves).
HCMV GFP‐based replication assay and cell proliferation assay. The replication of human cytomegalovirus (HCMV) was determined by an established HCMV GFP-based replication assay as carried out over a duration of approx. seven days (multi-round infection) using cultures of primary human foreskin fibroblasts (HFFs). HFFs were cultivated in 12-well plates for the infection with a GFP-expressing recombinant human cytomegalovirus (HCMV AD169-GFP) and a signal quantitation using automated GFP fluorometry as described before.2-4 All data represent mean values of determinations in quadruplicate (HCMV infections performed in duplicate, GFP measurements of total cell lysates performed in duplicate). Processing and evaluation of data was performed by the use of Excel (means and standard deviations, see Supplementary Figure 4 and Supplementary Data 1). […]

primary HFFs = assay: confocal laser-scanning microscopy of cellular uptake of fluorescent compounds; format: cell-based, human; details: 1–10 μM, uninfected or HCMV-infected, 20 h incubation
Procedure: Figure 7 Microscopy-based visualization of cellular uptake of fluorescent quinazoline compounds. (a) Artesunic acid–quinazoline hybrids 8 and 9. (b–d) Compounds 7h, 7g and 9 were analysed for properties of fluorescence imaging using confocal laser-scanning microscopy. HFFs were cultivated in six-well plates on cover slips and were either directly incubated with compounds by addition to the culture media for 20 h (c) or were added after HCMV infection (b,d; compound addition at 50 h post infection, fixation and analysis of cells 20 h later; scale bar, 10 μm). The chosen concentrations were 10 μM for compounds 7h, 7g and 9, or 1 μM for compound 9 in panels 4, 9 (b), panels 5, 10 (c) and panels 6–10 (d), referring to the compounds' EC50 values of anti-HCMV activity (see Table 1). The depicted images are representative for three independent experiments. Lack of mycoplasm contamination was verified by routine 4,6-diamidino-2-phenylindole staining. General procedures of cell fixation, indirect immunofluorescence staining of proteins (d) and microscopic analysis have been described elsewhere.
When analysing primary HFFs, the fluorescent compounds 7g, 7h and 9 could nicely be depicted both in extracellular (transparent arrows) and intracellular localizations (filled arrows; Fig. 7b,c). […] A nonfluorescent artemisinin-derived control compound (Fig. 7c, panels 2 and 7; see also Supplementary Fig. 6), the DMSO panels (solvent controls) as well as the inspection of different excitation wavelengths of the confocal laser-scanning microscopy confirmed the specificity of signals and a lack of unwarranted cross-fluorescence. […] An indirect immunofluorescence counterstaining of viral and cellular proteins[36][37] led to the detection of nuclear markers, that is, the viral protein kinase pUL97 and cellular lamins type A/C (Fig. 7d, panels 4, 9, 14 or 5, 10, 15, respectively), in the context of extracellular and intracellular fluorescence signals of compounds 7h and 9 (Fig. 7d, panels 1–5 or 6–15, respectively). […]

[3] = Human betaherpesvirus 5, AD169, read-out: EC50 (sheet Curves)
[4] = Human betaherpesvirus 5, AD169, read-out: HCMV EC50

SMILES | EC50 [1] | CC50 at 3 days [2] | GFP signal, % of Inf./DMSO, MW (mean) (HCMV AD169-GFP; 0.01 µM) | GFP signal, % of Inf./DMSO, single determination (raw data) (HCMV AD169-GFP; 0.01 µM) | GFP signal, % of Inf./DMSO, MW (mean) (HCMV AD169-GFP; 0.04 µM) | GFP signal, % of Inf./DMSO, single determination (raw data) (HCMV AD169-GFP; 0.04 µM) | GFP signal, % of Inf./DMSO, MW (mean) (HCMV AD169-GFP; 0.12 µM) | GFP signal, % of Inf./DMSO, single determination (raw data) (HCMV AD169-GFP; 0.12 µM) | GFP signal, % of Inf./DMSO, MW (mean) (HCMV AD169-GFP; 0.37 µM) | GFP signal, % of Inf./DMSO, single determination (raw data) (HCMV AD169-GFP; 0.37 µM) | GFP signal, % of Inf./DMSO, MW (mean) (HCMV AD169-GFP; 1.1 µM) | GFP signal, % of Inf./DMSO, single determination (raw data) (HCMV AD169-GFP; 1.1 µM) | GFP signal, % of Inf./DMSO, MW (mean) (HCMV AD169-GFP; 3.3 µM) | GFP signal, % of Inf./DMSO, single determination (raw data) (HCMV AD169-GFP; 3.3 µM) | EC50 (HCMV AD169-GFP; [3]) | EC50 (HCMV AD169-GFP; [4]) | cellular uptake (intracellular fluorescence) (primary HFFs) | GFP signal, % of Inf./DMSO, MW (mean) (HCMV AD169-GFP; 10 µM) | GFP signal, % of Inf./DMSO, single determination (raw data) (HCMV AD169-GFP; 10 µM)
CC1CCC2C(C)C(OC(=O)CCC(=O)OCCCNc3ncnc4c(C#N)c(-c5ccc(F)cc5)cc(-c5ccc(F)cc5)c34)OC3OC4(C)CCC1C32OO4 (stereo not shown) [compound 8] | 0.3 µM | > 100 µM | 88% | 102% and 75% and 74% | 90% | 89% and 86% and 90% and 94% | 88% | 93% and 86% and 79% | 73% | 80% and 78% and 68% and 66% | 11% | 10% and 11% and 12% | 7% | 7.61% and 6.36% and 6% and 7% | 0.64 µM | 0.6 ± 0.1 µM |  |  | 
Cc1ccc(-c2cc(-c3ccc(C)cc3)c3c(N)ncnc3c2C#N)cc1 [7b] |  | > 100 µM | 89% | 90% and 87% and 92% | 89% | 91% and 86% and 89% and 90% | 87% | 98% and 91% and 76% and 82% | 89% | 81% and 82% and 95% and 98% | 62% | 65% and 63% and 64% and 56% | 53% | 55% and 51% and 56% |  | 9.5 ± 4.8 µM |  |  | 
CC1CCC2C(C)C(OC(=O)CCC(=O)OCCCNc3ncnc4c(C#N)c(-c5ccc(C(F)(F)F)cc5)cc(-c5ccc(C(F)(F)F)cc5)c34)OC3OC4(C)CCC1C32OO4 (stereo not shown) [compound 9] | 0.3 ± 0.1 µM | > 100 µM | 84% | 73% and 98% and 95% and 70% | 81% | 84% and 89% and 73% and 77% | 49% | 51% and 47% and 53% and 46% | 1.06% | 0.952% and 0.865% and 1.31% and 1.1% | 0.87% | 0.763% and 0.908% and 0.901% |  |  |  | 0.1 µM | efficient cellular uptake |  | 
COc1ccc(-c2cc(-c3ccc(OC)cc3)c3c(N)ncnc3c2C#N)cc1 [7i] |  | > 100 µM | 82% | 85% and 84% and 78% | 91% | 100% and 98% and 84% | 83% | 89% and 80% and 75% | 54% | 53% and 57% | 38% | 39% and 42% and 35% | 31% | 28% and 26% and 34% and 35% | 0.56 µM | 0.6 ± 0.1 µM |  |  | 
N#Cc1c(-c2ccc(F)cc2)cc(-c2ccc(F)cc2)c2c(N)ncnc12 [7g] |  | > 100 µM |  |  |  |  | 93% | 82% and 87% and 122% and 80% | 94% | 94% and 96% and 90% | 79% | 73% and 94% and 71% and 79% | 62% | 61% and 63% and 60% and 66% |  | 4.9 ± 0.2 µM | efficient cellular uptake | 10% | 
C[C@H]1[C@H](OC(=O)CCC(=O)O)O[C@@H]2O[C@@]3(C)CC[C@H]4[C@H](C)CC[C@@H]1[C@@]24OO3 [Artesunic acid, reference compound] |  | 82 ± 0.9 µM |  |  |  |  |  |  |  |  |  |  |  |  |  | 3.8 ± 0.4 µM |  |  | 
Nc1nc(O)c2ncn(COC(CO)CO)c2n1 [Ganciclovir, reference compound] |  | > 100 µM |  |  |  |  |  |  |  |  |  |  |  |  |  | 2.6 ± 0.5 µM |  |  | 
C[C@@H]1CC[C@H]2[C@@H](C)C(=O)O[C@@H]3O[C@@]4(C)CC[C@@H]1[C@]32OO4 [Artemisinin, reference compound] |  | > 100 µM |  |  |  |  |  |  |  |  |  |  |  |  |  | > 10 µM |  |  | 
N#Cc1c(-c2ccc(C(F)(F)F)cc2)cc(-c2ccc(C(F)(F)F)cc2)c2c(N)ncnc12 [7h] | 7.3 ± 0.7 µM | > 100 µM |  |  |  |  | 72% | 60% and 89% and 90% and 49% | 71% | 80% and 75% and 61% and 68% | 75% | 61% and 62% and 87% and 89% | 58% | 58% and 67% and 50% and 57% |  | 4.6 ± 0.9 µM | efficient cellular uptake | 22% | 16% and 27% and 28%
